The conditions of data set [1]: cited from earlier work.
A short description of data set [2]: Solubility of flavoxate in various solvents at 20° C. In kind it is physicochemical. On the procedure:
(§1) Solubility of flavoxate hydrochloride was determined in various aqueous buffers, water, ethanol, acetone and ethyl ether at 20° C. and at ambient temperature (20 to 25° C.).

Data set [3] can be described thus: pH-dependent aqueous solubility at ambient temperature. The class given is physicochemical. As to conditions: 20 °C. On the procedure:
as §1

Data set [4] is described as follows: Flow properties of drug powder. The class given is physicochemical. How it is done: Tapped density • 2. Bulk density • 3. Compressibility Index and Hausner ratio • 4. Angle of repose Solubility: Flowability measures how uniformly the powder flows from the hopper into the tablet die and is an index of how well the tablet die will be filled to a constant volume. […] Similarly, the angle between the freestanding surface of a powder heap and horizontal plane is the angle of repose. […] flowability was less and could be improved with addition of lubricants during tablet-making. Results of tests to determine the Angle of repose (35°), Carr's index (33.3%), bulk density (0.236 gm/ml) and tapped density ([…]) indicate that the drug powder had poor flow properties.

Data set [5] can be described thus: Drug-excipient compatibility (Total RS). In kind it is physicochemical. On the procedure: Experiments were conducted to ascertain compatibility of the drug with commonly used excipients.

Where two headings read alike, the source gives them in different places.

`Cc1c(-c2ccccc2)oc2c(C(=O)O)cccc2c1=O` [MFCA, 3-methylflavone-8-carboxylic acid]: the “half-life t½” value in data set [1] (MFCA) was 3.5 h.
Regarding `Cc1c(-c2ccccc2)oc2c(C(=O)OCCN3CCCCC3)cccc2c1=O.Cl` [flavoxate, 2-piperidinoethyl-3-methylflavone 8-carboxylate hydrochloride], the Solubility % w/v result in data set [2] (Acetone) is listed as “Insoluble”; in data set [2] (Chloroform), 2.50 % w/v; in data set [2] (Ethanol) it was 0.20 % w/v; in data set [2] (Ethyl Ether) it was “Insoluble”; in data set [2] (Methanol), 0.90 % w/v. Moreover, the solubility in data set [2] (Water, read-out: Solubility % w/v) was 7500 µg/mL; in data set [3] (aqueous buffer, 0.05N Phosphate Buffer, pH 2.5, 20 to 25° C.), 7640 µg/mL; in data set [3] (aqueous buffer, 0.05N Phosphate Buffer, pH 4.5, 20 to 25° C.), 13700 µg/mL; in data set [3] (aqueous buffer, 0.05N Phosphate Buffer, pH 6.0, 20 to 25° C.), 15400 µg/mL; in data set [3] (aqueous buffer, 0.05N Phosphate Buffer, pH 6.8, 20 to 25° C.), 6170 µg/mL; in data set [3] (aqueous buffer, 0.05N Phosphate Buffer, pH 7.2, 20 to 25° C.), 1040 µg/mL. Also, the solubility in data set [3] (aqueous buffer, 0.05N Phosphate Buffer, pH 7.5, 20 to 25° C.) was 580 µg/mL; in data set [3] (simulated gastric fluid, 0.1N HCl, pH 1.2, 20 to 25° C.), 570 µg/mL; in data set [3] (Water, pH 5.7, 20 to 25° C.) it was 11300 µg/mL. In data set [4], this compound returned an Angle of repose of 35 °. Moreover, the “Carr's index” value in data set [4] came out at 33.3%. This compound also gave a bulk density in data set [4] of 0.236 gm/ml. Besides, the tapped density in data set [4] came out at 0.355 g/mL. The “Total R.S. (%) 30 D/40° C./75% RH*” value in data set [5] (30 days at 40° C. and 75% relative humidity) is listed as 0.04%. For the same compound, the “Total R.S. (%) Initial” value in data set [5] (initial) is recorded as 0.02%. Moreover, the “duration of therapeutic activity” value in data set [1] (in vivo) was 5 to 6 h. For the same compound, the “free flavoxate in urine” value in data set [1] (in vivo) is “No free flavoxate was found”. Besides, the “time of peak level of MFCA” value is “around two hours” in data set [1] (oral 400 mg dose) and 30 to 60 min in data set [1] (oral administration of 200 mg dose). Also, the “dose excreted as MFCA within 12 hours” value in data set [1] (oral, within 12 hours) is “About 50%”. In data set [1] (urine, 24 hours, intravenous), the “dose excreted as MFCA” value is listed as 47%.

These data come from US11992558B2, “Controlled release formulation comprising flavoxate” (priority 2018, dated 2024).
